Key:
[1] = target: T1, Motilin receptor (Oryctolagus cuniculus, UniProt G1T803); experiment: Motilin receptor binding test (125I motilin, rabbit duodenum protein sample); conditions: 125I motilin 25 pM, concentration reducing specific binding by 50%
T1 construct: had the mucous membrane separated and homogenized in 50 mM Tris buffer to prepare a protein sample; from tissue; host or cells: rabbit duodenum with the mucous membrane separated, homogenate
Method: Motilin Receptor Binding Test
A motilin receptor binding test was conducted in the following manner [Vantrappen et al., Regul. Peptides, 15, 143 (1986)]. The duodenum was extracted from a slaughtered rabbit, had the mucous membrane separated and homogenized in 50 mM Tris buffer to prepare a protein sample. The protein sample was incubated together with ^125I motilin 25 pM and thereafter the radioactivity bound to the protein was measured. Specific binding was defined as the difference between the radioactivity in the case of no adding and that in the case of adding a great excess amount of motilin (10^−7 M). The activity of the compound was expressed by IC50 (in nM), as the concentration sufficient to reduce the specific binding by 50%.

[2] = test system: motilin-induced contraction of longitudinal muscle in the duodenum; experiment: Contraction suppressing test: motilin-induced contraction of a specimen of longitudinal muscle in the duodenum extracted from a rabbit; assay type: cell-based; conditions: rabbit duodenum longitudinal muscle in organ bath, Krebs solution 28° C.; effect on dose-dependent contraction by motilin
Method: Action on the Contraction of a Specimen of Longitudinal Muscle in the Duodenum Extracted from a Rabbit
The action on the motilin-induced contraction of a specimen of longitudinal muscle in the duodenum extracted from a rabbit was investigated by the following method. A duodenum specimen extracted from a slaughtered rabbit (5×15 mm) was suspended in an organ bath (10 ml) such that the longitudinal muscle would run vertically; the bath was filled with a Krebs solution kept at 28° C. A mixed gas (95% O2 and 5% CO2) was continuously bubbled into the Krebs solution and the contraction of the duodenum specimen was recorded isotonically (with a 1-g load) via an isotonic transducer (ME-3407, ME Commercial, Tokyo, Japan). The degree of contraction was expressed in relative values, with the contraction by acetylcholine at a dose of 10^−4 M being taken as 100%. The activity of the compound was calculated as pA2 value indicating its effect on the dose-dependent muscle contraction by the motilin put into the organ bath.

T1 sequence (G1T803 1-400): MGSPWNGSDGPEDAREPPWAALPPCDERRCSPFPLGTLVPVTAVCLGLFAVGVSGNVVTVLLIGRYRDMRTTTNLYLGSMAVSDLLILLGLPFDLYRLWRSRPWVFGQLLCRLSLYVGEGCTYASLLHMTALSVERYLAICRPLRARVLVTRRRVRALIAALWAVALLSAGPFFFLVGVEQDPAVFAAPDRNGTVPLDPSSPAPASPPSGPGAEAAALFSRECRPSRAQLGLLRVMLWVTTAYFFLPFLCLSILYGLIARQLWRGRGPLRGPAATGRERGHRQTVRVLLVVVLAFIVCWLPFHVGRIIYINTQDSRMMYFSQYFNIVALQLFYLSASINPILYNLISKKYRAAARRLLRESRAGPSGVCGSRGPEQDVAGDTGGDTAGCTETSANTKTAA

IC50 [1]: 3.5 nM
SMILES: CC(C)[C@@H](C(=O)NC(Cc1ccc(F)c(C(C)(C)C)c1)C(N)=O)N(C)C(=O)[C@@H](N)Cc1ccccc1 (single isomer, unassigned) [7 (A), Phe-N-Me-Val-Phe(3-tBu-4-F)—NH2]
Contraction suppressing test, pA2 [2]: 7.58
